The structures appear in SMILES notation.

In one assay the test system is GBM cells. Kind of assay: Proliferation and survival of GBM cells over 8 days. In kind it is cell-based, human. Particulars: for change in GBM cell population by day 8 / rate of proliferation in comparison with untreated samples: 10 μM and 20 μM; for change in GBM cell population by day 8: UWLV301, UWLV304, IN1951, U251MG and IN2045; for rate of proliferation in comparison with untreated samples: recorded daily for 8 days, all cell lines; for slowing or eliminating the proliferation of the GBM cell lines: summary statement. Here is the method:
Further studies were carried out to test the effect of Compounds 1 and 2 on proliferation and survival of the GBM cells. […] Results on the change in cell population were observed and recorded daily for 8 days.

Another assay deals with IN859 GBM cell line. Kind of assay: Sensitivity of GBM cell line to Compounds 1 and 2 (ID50). The format is cell-based. Particulars: Homo sapiens.
Another assay relates to UWLV301 GBM cell line. Described as above. The format is cell-based. Particulars: Homo sapiens.
Another assay concerns IN1528 GBM cell line. Described as above. In kind it is cell-based. Particulars: Homo sapiens.
The next assay concerns the target T1, bovine retina PDE6 (Bos taurus, UniProt P11541+P23439).
T1 construct: bovine retina PDE6; from tissue; host or cells: bovine retina
T1 sequence (P11541 2-856 limits assumed): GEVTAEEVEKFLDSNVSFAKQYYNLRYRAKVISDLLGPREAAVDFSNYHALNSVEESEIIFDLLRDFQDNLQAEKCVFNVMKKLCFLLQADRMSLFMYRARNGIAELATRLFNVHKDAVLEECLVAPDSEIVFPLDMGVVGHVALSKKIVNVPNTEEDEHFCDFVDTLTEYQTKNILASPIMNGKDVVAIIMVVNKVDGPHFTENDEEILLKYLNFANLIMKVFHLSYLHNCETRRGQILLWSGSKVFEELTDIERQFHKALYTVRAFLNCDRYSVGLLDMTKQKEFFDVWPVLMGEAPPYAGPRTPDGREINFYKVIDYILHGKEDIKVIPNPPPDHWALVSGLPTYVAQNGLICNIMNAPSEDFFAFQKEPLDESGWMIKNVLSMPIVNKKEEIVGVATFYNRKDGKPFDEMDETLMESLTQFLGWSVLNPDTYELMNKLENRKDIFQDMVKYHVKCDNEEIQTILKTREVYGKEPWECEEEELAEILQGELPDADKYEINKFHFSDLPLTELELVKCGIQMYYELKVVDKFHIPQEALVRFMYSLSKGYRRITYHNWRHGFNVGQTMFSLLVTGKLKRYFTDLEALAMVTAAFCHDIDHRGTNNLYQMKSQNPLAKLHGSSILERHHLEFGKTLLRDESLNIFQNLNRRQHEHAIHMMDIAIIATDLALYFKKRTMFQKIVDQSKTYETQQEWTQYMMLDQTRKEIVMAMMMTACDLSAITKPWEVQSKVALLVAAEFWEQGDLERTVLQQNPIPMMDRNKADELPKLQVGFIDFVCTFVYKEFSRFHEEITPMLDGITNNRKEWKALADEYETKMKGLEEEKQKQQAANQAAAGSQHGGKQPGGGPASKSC
T1 sequence (P23439 2-850 limits assumed): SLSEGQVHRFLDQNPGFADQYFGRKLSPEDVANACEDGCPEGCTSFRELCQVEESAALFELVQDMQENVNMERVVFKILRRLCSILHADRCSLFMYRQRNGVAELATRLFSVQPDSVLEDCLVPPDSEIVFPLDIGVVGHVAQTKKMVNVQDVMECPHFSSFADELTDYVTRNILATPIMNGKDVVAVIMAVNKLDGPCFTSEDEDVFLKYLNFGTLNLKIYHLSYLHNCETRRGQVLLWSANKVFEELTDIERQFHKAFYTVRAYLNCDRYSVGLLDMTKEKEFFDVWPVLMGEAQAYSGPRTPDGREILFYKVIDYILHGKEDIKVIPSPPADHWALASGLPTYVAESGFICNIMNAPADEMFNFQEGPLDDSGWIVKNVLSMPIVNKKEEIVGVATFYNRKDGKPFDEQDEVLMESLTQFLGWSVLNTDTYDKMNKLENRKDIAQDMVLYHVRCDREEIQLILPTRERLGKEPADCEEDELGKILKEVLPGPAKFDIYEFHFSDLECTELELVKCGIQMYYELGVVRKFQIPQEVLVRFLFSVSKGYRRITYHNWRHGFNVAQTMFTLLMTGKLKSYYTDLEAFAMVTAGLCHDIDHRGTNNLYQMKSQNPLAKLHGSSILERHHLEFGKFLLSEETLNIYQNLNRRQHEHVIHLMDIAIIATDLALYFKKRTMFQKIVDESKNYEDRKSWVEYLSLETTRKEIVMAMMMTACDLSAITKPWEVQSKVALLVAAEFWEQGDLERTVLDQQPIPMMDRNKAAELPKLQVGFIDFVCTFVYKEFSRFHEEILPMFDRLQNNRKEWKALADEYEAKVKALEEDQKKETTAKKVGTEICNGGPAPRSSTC
Kind of assay: Inhibitory constant against PDEs. The format is biochemical.

In another assay the test system is IN2045 GBM cell line. As to the kind of experiment: Sensitivity of GBM cell line to Compounds 1 and 2 (ID50). The format is cell-based. Particulars: Homo sapiens.
The subject of the next assay is UWLV304 GBM cell line. Described as above. Particulars: Homo sapiens. In kind it is cell-based.
Another assay deals with U251MG GBM cell line. Described as above. Particulars: Homo sapiens, U-251. The format is cell-based.
The next assay concerns IN1951 GBM cell line. Described as above. The format is cell-based. Particulars: Homo sapiens.
Another assay has as its target T2, PDE1 (bovine brain).
T2 construct: Ki; other: PDE1 (bovine brain)
The format is biochemical.

For the compound `CN1C(=O)c2c(nn(Cc3ccc(-c4cccc(F)n4)cc3)c2Nc2ccccc2)N2C1=N[C@@H]1CCC[C@@H]12` [Compound 1], the “change in GBM cell population by day 8” value in the assay with GBM cells is reported as “overall decrease”. Also, the “rate of proliferation in comparison with untreated samples” value in the assay on GBM cells is “proliferated at a slower rate”. Moreover, the “slowing or eliminating the proliferation of the GBM cell lines” value in the assay on GBM cells is given as “highly effective”. Besides, the half-inhibitory concentration (IC50) in the assay with IN859 GBM cell line worked out at 34.9 µM; in the assay on UWLV301 GBM cell line, 5.4 µM; in the assay with IN1528 GBM cell line it was 26.5 µM; in the assay with IN2045 GBM cell line it was 18.4 µM; in the assay with UWLV304 GBM cell line, 6.4 µM; in the assay on U251MG GBM cell line, 17.8 µM. This compound also gave an IC50 in the assay on IN1951 GBM cell line of 2.04 µM. Besides, the Ki on bovine retina PDE6 is 0.32 µM; on PDE1 (bovine brain), 0.058 nM.
Turning to `CC(=O)c1ccc(Cn2nc3c(c2Nc2ccc(F)cc2)C(=O)N(C)C2=NC(C)(C)CN23)cc1` [Compound 2], in the assay on GBM cells, the “change in GBM cell population by day 8” value was “overall decrease”. Further, the “rate of proliferation in comparison with untreated samples” value with GBM cells is recorded as “proliferated at a slower rate”. In addition, in the assay with GBM cells, the “slowing or eliminating the proliferation of the GBM cell lines” value is given as “highly effective”. The concentration for half-maximal inhibition (IC50) in the assay with IN859 GBM cell line came out at 9.77 µM; in the assay on UWLV301 GBM cell line it was 4.73 µM; in the assay on IN1528 GBM cell line it was 9.45 µM; in the assay with IN2045 GBM cell line it was 12 µM; with UWLV304 GBM cell line it was 2.87 µM; in the assay with U251MG GBM cell line it was 32 µM. In addition, the midpoint of inhibition in the assay on IN1951 GBM cell line, the IC50, lay at 1.03 µM.
